Laboratory results reported in patent US20110098227A1, “Soluble notch-based substrates for gamma secretase and methods and compositions for using same” (priority 2002, published 2011).

How the values were obtained:
solubilized γ-secretase [1] = target: T1, solubilized γ-secretase (Homo sapiens, UniProt P49768); assay: Cleavage of Notch as determined by Western blot analysis; assay type: biochemical
T1 construct: γ-secretase activity from HeLa cells specifically cleaves the Notch protein; endogenous in cells; host or cells: HeLa cells (detergent-solubilized membrane fraction); substrate made in E. coli BL21 (DE3)
Experimental: Cleavage of Notch as Determined by Western Blot Analysis. NusA-Notch fusion (1.7 μM) was incubated with 70 mg/ml solubilized γ-secretase in 50 mM Pipes, pH 7.0, 0.25% CHAPSO in a total volume of 50 μl overnight at 37° C. DAPT (PHA-568638) was added at varying concentrations. The reactions were stopped with the addition of 12.5 μl of 5× Laemmli buffer (Laemmli 1970) and 30 μl of the mixture was electrophoresed on a 15% SDS-PAGE. Proteins were transferred to nitrocellulose using a semi-dry blot apparatus (Millipore) and blocked for 2 hours using 4% BSA in PBS/0.5% Tween-20. […] The membrane was washed three times with PBS/0.5% Tween-20 followed by incubation with anti-rabbit IgG-HRP (1:5000 dil in 4% BSA in PBS/0.5% Tween-20). The membrane was again washed three times and developed using ECL reagents (Amersham, Piscataway, N.J.).

solubilized γ-secretase [2] = target: T1, solubilized γ-secretase; assay: In vitro Notch cleavage ELISA (NusA-Notch fusion cleaved by solubilized γ-secretase, Val-1744/anti-FLAG sandwich); assay type: biochemical
Experimental: In vitro Notch Cleavage ELISA. Notch cleavage was also assessed using an ELISA technique. Prior to setting up a reaction, the required number of wells in a 96-well half-area plate (Costar) were coated with 50 μl of Val-1744 antibody diluted 1:200 in 0.1 M NaHCO3, pH 8.2. Plates were incubated overnight at 4° C. The Notch cleavage reaction was set up as follows. NusA-Notch (0.9 μM) was incubated with 70 mg/ml of solubilized γ-secretase in 50 mM Pipes, pH 7.0, 0.25% CHAPSO in a total volume of 25 μl overnight at 37° C. The next day, the plate coated with Val-1744 antibody was washed 3 times with PBS/0.05% Tween-20 and blocked using 4% BSA in PBS/0.05% Tween-20 for 1 hour. […] The color was allowed to develop for 1 hour and 50 µl of 1M H3PO4 was added and the plates read at 450 nm on a SpectraMax Plus plate reader. […]
Inhibition of Notch Cleavage. […] IC50′s were calculated for inhibitors using the 4-parameter logistic model in the GraFit 4.0 program.
It is based on a sandwich ELISA using the highly specific anti-Val 1744 and anti Flag antibodies to capture the N- and C-terminus of the NICD fragment from the Notch fusion protein in the presence of γ-secretase. […] The chromogenic substrate for HRP, TMB reagent (Kirkegaard & Perry) is added and the color once developed is read at 450 nm on a SpectraMax Plus plate reader.

inhibition of specific cleavage in Notch protein (1743/1744) (solubilized γ-secretase [1]; Western blot probed with Val-1744 antibody, varying concentrations, FIG. 5 lanes 4-8)	IC50 (solubilized γ-secretase [2]; NusA-Notch substrate, overnight 37° C., FIG. 9, read-out: IC50, inhibition of γ-secretase-mediated Notch cleavage) [nM]	Compound	inhibition of cleavage products of Notch fusion protein (solubilized γ-secretase [1]; Western blot using the C-terminal Flag antibody, three immunoreactive bands)	Km (solubilized γ-secretase [2]; Michaelis-Menten fit, 0.11 to 3.6 μM substrate, FIG. 8A, read-out: apparent Km for hydrolysis of Notch fusion protein substrate by solubilized γ-secretase activity) [µM]
inhibited in a dose-dependent manner	2.4	C[C@H](NC(=O)Cc1cc(F)cc(F)c1)C(=O)N[C@H](C(=O)OC(C)(C)C)c1ccccc1 [DAPT]	only one cleavage product was inhibitable	–
–	–	Notch fusion protein substrate: soluble fusion of mouse Notch-1 amino acids 1703-1860 to C-terminus of NusA with C-terminal Flag and 8His tags (SEQ ID NO:2)	–	~0.7
